Here are results for four molecules from patent US20220112479A1, “COMPOUNDS STABILIZING AMYLASES IN LIQUIDS” (BASF SE, priority 2018, published 2022).

The test system of this assay is Amylase. Briefly: amylase storage stability in liquid laundry formulation (pNP release from Ethyliden-blocked-pNPG7). Type of assay: biochemical. On the set-up: key: % of activity in reference formulation at time 0. The settings on record: 2.5 wt % component (a), storage at 37° C. As for the experimental part: The storage stability of amylase was assessed at 37° C.
Base test formulations were manufactured by making base formulations VI to IX by mixing the components according to Table 4.
Amylase activity at certain points in time as indicated in Table 5 was measured quantitatively by the release of the chromophore para-nitrophenol (pNP) from the substrate (Ethyliden-blocked-pNPG7, Roche Applied Science 10880078103). The alpha-amylase degrades the substrate into smaller molecules and α-glucosidase (Roche Applied Science 11626329103), which is present in excess compared to the amylase, process these smaller products until pNP is released; the release of pNP, measured via an increase of absorption at 405 nm, is directly proportional to the amylase activity of the sample. Amylase standard: Termamyl 120 L (Sigma 3403).
The amylolytic activity values provided were calculated referring to the value determined in the reference formulation at the time 0.
The nomenclature of formulations is as follows: the Roman number before the full stop characterizes the base formulation, the Arabian number the type of compound (A.# compound according to invention (component (a)); B.# comparative compound).

Where [1] appears, read: laundry base formulation IX. (2.5 DTPA), 3 d.
Where [2] appears, read: laundry base formulation IX. (2.5 DTPA), 7 d.
The mark [3] stands for this setting: laundry base formulation IX. (2.5 DTPA), 14 d.
[4] abbreviates: laundry base formulation IX. (2.5 DTPA), 21 d.
The mark [5] stands for this setting: laundry base formulation IX. (2.5 DTPA), 28 d.
[6] abbreviates: laundry base formulation IX. (2.5 DTPA), T0.
Where [7] appears, read: laundry base formulation VI. (2.0 EDTA), 3 d.
Setting [8] is: laundry base formulation VI. (2.0 EDTA), 7 d.
[9] abbreviates: laundry base formulation VI. (2.0 EDTA), 14 d.
Where [10] appears, read: laundry base formulation VI. (2.0 EDTA), 21 d.
The mark [11] stands for this setting: laundry base formulation VI. (2.0 EDTA), 28 d.
Setting [12] is: laundry base formulation VI. (2.0 EDTA), T0.
Where [13] appears, read: laundry base formulation VII. (2.0 EDTA), 3 d.
Setting [14] is: laundry base formulation VII. (2.0 EDTA), 7 d.
[15] abbreviates: laundry base formulation VII. (2.0 EDTA), 14 d.
Where [16] appears, read: laundry base formulation VII. (2.0 EDTA), 21 d.
The mark [17] stands for this setting: laundry base formulation VII. (2.0 EDTA), 28 d.
The mark [18] stands for this setting: laundry base formulation VII. (2.0 EDTA), T0.
Where [19] appears, read: laundry base formulation VIII. (2.5 DTPA, no Savinase), 3 d.
[20] abbreviates: laundry base formulation VIII. (2.5 DTPA, no Savinase), 7 d.
Where [21] appears, read: laundry base formulation VIII. (2.5 DTPA, no Savinase), 14 d.
Setting [22] is: laundry base formulation VIII. (2.5 DTPA, no Savinase), 21 d.
Where [23] appears, read: laundry base formulation VIII. (2.5 DTPA, no Savinase), 28 d.
Setting [24] is: laundry base formulation VIII. (2.5 DTPA, no Savinase), T0.

For `CCOC(=O)CC(O)(CC(=O)OCC)C(=O)OCC` [A.1, Triethylcitrate], the “amylase activity, referring to reference formulation at time 0” value (shortened to “amylase activity, referring”) under setting [1] is 98; the “amylase activity, referring” value under setting [2] was 90; the “amylase activity, referring” value under setting [3] is 85; the “amylase activity, referring” value under setting [4] was 78; the “amylase activity, referring” value under setting [5] was found to be 70; the “amylase activity, referring” value under setting [6] is 99. In addition, the “amylase activity, referring” value is on record as 98 under setting [7]; 91 under setting [8]; 86 under setting [9]; 81 under setting [10]; 73 under setting [11]; 100 under setting [12]. Besides, the “amylase activity, referring” value worked out at 95 under setting [13]; 88 under setting [14]; 79 under setting [15]; 73 under setting [16]; 68 under setting [17]; 100 under setting [18]. The “amylase activity, referring” value amounted to 98 under setting [19]; 93 under setting [20]; 88 under setting [21]; 83 under setting [22]; 75 under setting [23]; 100 under setting [24].
As to `CCCOC(=O)CC(O)(CC(=O)OCCC)C(=O)OCCC` [A.2, Tripropylcitrate], the “amylase activity, referring” value under setting [1] was found to be 93; the “amylase activity, referring” value under setting [2] stood at 85; the “amylase activity, referring” value under setting [3] is listed as 81; the “amylase activity, referring” value under setting [4] was 72; the “amylase activity, referring” value under setting [5] came to 63; the “amylase activity, referring” value under setting [6] is 100. The “amylase activity, referring” value reads like this: under setting [7], 94; under setting [8], 86; under setting [9], 80; under setting [10], 74; under setting [11], 65; under setting [12], 101. In addition, the “amylase activity, referring” value by setting is: under setting [19], 94; under setting [20], 87; under setting [21], 83; under setting [22], 77; under setting [23], 69; under setting [24], 99.
On to `CCOC(=O)CC(CC(=O)OCC)(OC(C)=O)C(=O)OCC` [A.5, Acetyltriethylcitrate], for which the “amylase activity, referring” value under setting [1] is reported as 91; the “amylase activity, referring” value under setting [2] is on record as 78; the “amylase activity, referring” value under setting [3] is listed as 69; the “amylase activity, referring” value under setting [4] is recorded as 61; the “amylase activity, referring” value under setting [5] was found to be 53; the “amylase activity, referring” value under setting [6] worked out at 98. Also, the “amylase activity, referring” value amounted to 92 under setting [13]; 81 under setting [14]; 72 under setting [15]; 66 under setting [16]; 61 under setting [17]; 98 under setting [18]. Also, the “amylase activity, referring” value is 93 under setting [19]; 83 under setting [20]; 74 under setting [21]; 67 under setting [22]; 64 under setting [23]; 100 under setting [24].
Turning to Diethylcitrate [A.7], the “amylase activity, referring” value was 90 under setting [13]; 82 under setting [14]; 69 under setting [15]; 62 under setting [16]; 56 under setting [17]; 99 under setting [18].
